Reference: ChEMBL document CHEMBL5325488, “Discovery of SMD-3040 as a Potent and Selective SMARCA2 PROTAC Degrader with Strong in vivo Antitumor Activity” (J Med Chem, 2023)
Active and inactive are the calls of the source. The rule behind the calls is not given here.

How the values were obtained:
[1] = Toxicity in SCID mouse xenografted with human SK-MEL-5 cells assessed as effect on change in body weight at 50 mg/kg, iv administered twice a week measured after 3 weeks; type: organism-based; details: in vivo, 504 h
[2] = target: T1, von Hippel-Lindau disease tumor suppressor/SWI/SNF-related matrix-associated actin-dependent regulator of chromatin subfamily A member 2 (Homo sapiens, UniProt P51531+P40337); assay: In vivo PROTAC activity at VHL/SMARCA2 in SCID mouse xenografted with human MV4-11 cells assessed as remaining activity in tumor at 50 mg/kg, iv administered as single dose measured after 24 hrs by Western blotting analysis (reference value: 100 +/- 15 % ); type: ADME, organism-based
Target sequence in this assay (P51531 whole entry, the tested form may be a part): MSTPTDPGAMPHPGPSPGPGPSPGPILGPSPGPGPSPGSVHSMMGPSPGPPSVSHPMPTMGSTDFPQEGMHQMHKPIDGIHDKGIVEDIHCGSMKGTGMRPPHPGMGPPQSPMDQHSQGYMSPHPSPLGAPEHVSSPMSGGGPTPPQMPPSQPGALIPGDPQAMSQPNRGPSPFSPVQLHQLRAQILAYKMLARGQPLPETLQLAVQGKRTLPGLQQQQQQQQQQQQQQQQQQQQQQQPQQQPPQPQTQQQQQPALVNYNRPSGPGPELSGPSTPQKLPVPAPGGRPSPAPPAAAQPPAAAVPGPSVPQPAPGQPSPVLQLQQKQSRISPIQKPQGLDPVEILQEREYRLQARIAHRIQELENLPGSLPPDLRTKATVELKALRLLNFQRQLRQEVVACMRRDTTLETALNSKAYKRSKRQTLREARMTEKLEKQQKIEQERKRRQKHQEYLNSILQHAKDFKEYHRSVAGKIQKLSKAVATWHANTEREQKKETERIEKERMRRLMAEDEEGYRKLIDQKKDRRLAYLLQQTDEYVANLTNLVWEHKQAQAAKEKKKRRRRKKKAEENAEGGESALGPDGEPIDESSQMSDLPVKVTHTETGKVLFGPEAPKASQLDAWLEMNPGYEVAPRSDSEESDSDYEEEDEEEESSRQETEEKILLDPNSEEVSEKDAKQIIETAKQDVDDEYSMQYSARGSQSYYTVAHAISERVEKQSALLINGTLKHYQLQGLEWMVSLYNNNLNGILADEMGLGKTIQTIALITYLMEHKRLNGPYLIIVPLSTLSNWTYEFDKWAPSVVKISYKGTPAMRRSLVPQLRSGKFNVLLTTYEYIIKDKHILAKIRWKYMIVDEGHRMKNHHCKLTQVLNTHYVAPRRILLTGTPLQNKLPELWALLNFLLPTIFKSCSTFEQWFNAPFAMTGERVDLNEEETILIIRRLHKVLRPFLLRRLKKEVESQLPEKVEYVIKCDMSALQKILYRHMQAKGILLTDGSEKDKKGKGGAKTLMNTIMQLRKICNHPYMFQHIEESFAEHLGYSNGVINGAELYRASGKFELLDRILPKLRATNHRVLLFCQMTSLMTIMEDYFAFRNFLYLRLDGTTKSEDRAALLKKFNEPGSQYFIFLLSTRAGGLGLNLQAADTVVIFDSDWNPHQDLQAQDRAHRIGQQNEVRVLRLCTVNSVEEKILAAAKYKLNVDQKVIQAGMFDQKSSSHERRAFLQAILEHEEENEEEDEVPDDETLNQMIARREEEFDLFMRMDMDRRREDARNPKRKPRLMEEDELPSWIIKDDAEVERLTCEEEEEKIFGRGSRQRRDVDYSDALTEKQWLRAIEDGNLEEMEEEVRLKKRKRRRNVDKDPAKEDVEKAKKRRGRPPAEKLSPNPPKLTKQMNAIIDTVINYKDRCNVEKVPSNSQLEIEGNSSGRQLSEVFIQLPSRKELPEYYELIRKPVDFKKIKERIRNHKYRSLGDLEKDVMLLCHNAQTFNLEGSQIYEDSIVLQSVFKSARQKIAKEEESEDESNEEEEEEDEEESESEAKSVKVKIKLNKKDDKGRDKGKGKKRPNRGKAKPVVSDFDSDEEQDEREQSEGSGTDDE
Target sequence in this assay (P40337 whole entry, the tested form may be a part): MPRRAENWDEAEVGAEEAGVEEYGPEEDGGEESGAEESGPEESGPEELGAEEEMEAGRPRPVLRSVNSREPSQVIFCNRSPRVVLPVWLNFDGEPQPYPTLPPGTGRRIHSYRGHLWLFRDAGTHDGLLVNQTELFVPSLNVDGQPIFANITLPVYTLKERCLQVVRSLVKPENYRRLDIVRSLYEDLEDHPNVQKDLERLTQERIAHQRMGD

[3] = target: T1, von Hippel-Lindau disease tumor suppressor/SWI/SNF-related matrix-associated actin-dependent regulator of chromatin subfamily A member 2; assay: PROTAC activity at VHL/C-terminal HiBiT fused SMARCA2 in human HeLa cells assessed as induction of SMARCA2 degradation pre-treated with (2S,4R)-1-((S)-2-acetamido-3,3-dimethylbutanoyl)-4-hydroxy-N-((S)-1-(4-(4-methylthiazol-5-yl)phenyl)ethyl)pyrrolidine-2-carboxamide for 2 hrs followed by compound treatment for 24 hrs by Nano-Glo HiBiT analysis; type: cell-based
Target sequence in this assay (P40337 whole entry, looked up, the tested form may be a part): as the sequence (P40337 whole entry, the tested form may be a part) above
Target sequence in this assay (P51531 whole entry, looked up, the tested form may be a part): as the sequence (P51531 whole entry, the tested form may be a part) above

[4] = Drug concentration in SCID mouse tumor xenografted with human MV4-11 cells at 50 mg/kg, iv measured after 6 hrs by LC-MS/MS method; type: ADME, organism-based, Neoplasm; details: read-out: Ct
[5] = target: von Hippel-Lindau disease tumor suppressor/SWI/SNF-related matrix-associated actin-dependent regulator of chromatin subfamily A member 4 (Homo sapiens, UniProt P51532+P40337); assay: PROTAC activity at VHL/C-terminal HiBiT fused SMARCA4 in human HeLa cells assessed as induction of SMARCA4 degradation by measuring maximal efficacy at 0.001 to 10 uM incubated for 48 hrs by Nano-Glo HiBiT analysis relative to control; type: cell-based; details: dose 0.001-10 µM
von Hippel-Lindau disease tumor suppressor/SWI/SNF-related matrix-associated actin-dependent regulator of chromatin subfamily A member 4, sequence (P40337 whole entry, looked up, the tested form may be a part): as the sequence (P40337 whole entry, the tested form may be a part) above
von Hippel-Lindau disease tumor suppressor/SWI/SNF-related matrix-associated actin-dependent regulator of chromatin subfamily A member 4, sequence (P51532 whole entry, looked up, the tested form may be a part): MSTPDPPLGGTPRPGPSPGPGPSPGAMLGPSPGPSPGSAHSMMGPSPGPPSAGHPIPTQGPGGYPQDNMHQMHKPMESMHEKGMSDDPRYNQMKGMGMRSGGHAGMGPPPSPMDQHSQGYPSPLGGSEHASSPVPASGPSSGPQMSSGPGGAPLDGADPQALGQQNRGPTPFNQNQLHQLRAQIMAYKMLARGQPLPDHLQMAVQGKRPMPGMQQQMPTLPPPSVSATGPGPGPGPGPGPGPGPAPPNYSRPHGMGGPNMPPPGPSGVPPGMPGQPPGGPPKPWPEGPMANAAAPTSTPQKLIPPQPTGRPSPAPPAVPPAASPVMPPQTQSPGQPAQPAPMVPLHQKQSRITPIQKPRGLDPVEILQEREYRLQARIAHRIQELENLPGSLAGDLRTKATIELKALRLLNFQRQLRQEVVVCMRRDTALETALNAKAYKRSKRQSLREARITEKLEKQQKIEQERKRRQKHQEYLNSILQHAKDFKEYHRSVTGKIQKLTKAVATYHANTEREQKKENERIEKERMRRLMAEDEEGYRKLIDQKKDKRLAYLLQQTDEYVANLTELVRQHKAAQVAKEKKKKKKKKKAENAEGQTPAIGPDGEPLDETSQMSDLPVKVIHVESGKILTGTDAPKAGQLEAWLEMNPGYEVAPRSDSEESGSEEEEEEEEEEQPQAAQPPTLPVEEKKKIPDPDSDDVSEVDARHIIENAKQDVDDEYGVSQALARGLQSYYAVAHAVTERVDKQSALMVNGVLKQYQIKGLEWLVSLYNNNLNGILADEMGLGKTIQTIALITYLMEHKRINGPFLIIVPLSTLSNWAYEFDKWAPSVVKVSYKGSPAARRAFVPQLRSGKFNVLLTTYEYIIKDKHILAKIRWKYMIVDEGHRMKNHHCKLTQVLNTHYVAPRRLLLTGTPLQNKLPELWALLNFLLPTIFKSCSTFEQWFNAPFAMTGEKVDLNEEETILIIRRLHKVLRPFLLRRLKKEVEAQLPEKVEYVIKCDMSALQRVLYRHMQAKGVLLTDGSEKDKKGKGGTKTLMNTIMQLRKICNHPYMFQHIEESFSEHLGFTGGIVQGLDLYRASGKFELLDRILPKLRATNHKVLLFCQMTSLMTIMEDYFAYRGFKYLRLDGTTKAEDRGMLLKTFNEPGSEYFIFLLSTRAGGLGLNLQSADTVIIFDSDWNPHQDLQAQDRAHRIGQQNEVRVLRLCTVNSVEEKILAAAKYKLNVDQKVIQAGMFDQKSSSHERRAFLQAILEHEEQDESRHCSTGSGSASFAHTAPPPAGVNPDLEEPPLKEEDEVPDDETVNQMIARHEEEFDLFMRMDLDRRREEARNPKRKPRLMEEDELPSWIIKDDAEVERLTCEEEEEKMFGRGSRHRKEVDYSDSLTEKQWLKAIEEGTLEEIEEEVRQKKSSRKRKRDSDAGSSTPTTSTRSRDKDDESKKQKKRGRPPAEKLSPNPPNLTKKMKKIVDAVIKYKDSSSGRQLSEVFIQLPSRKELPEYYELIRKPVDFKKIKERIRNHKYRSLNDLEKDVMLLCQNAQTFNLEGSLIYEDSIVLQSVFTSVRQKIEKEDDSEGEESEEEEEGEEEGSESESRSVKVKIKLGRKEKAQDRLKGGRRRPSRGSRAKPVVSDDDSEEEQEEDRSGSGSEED

[6] = Drug concentration in SCID mouse tumor xenografted with human MV4-11 cells at 50 mg/kg, iv measured after 72 hrs by LC-MS/MS method; type: ADME, organism-based, Neoplasm; details: read-out: Ct
[7] = target: T1, von Hippel-Lindau disease tumor suppressor/SWI/SNF-related matrix-associated actin-dependent regulator of chromatin subfamily A member 2; assay: In vivo PROTAC activity at VHL/SMARCA2 in SCID mouse xenografted with human NCI-H838 cells assessed as reduction of SMARCA2 level in tumor at 50 mg/kg, iv administered as single dose measured after 24 hrs by Western blotting analysis; type: functional, organism-based; set-up: scale not given: the % may be the effect or the level left
Target sequence in this assay (P40337 whole entry, looked up, the tested form may be a part): as the sequence (P40337 whole entry, the tested form may be a part) above
Target sequence in this assay (P51531 whole entry, looked up, the tested form may be a part): as the sequence (P51531 whole entry, the tested form may be a part) above

Activity [2]: 14% | Activity [3]: inactive | concentration at 6 h [4]: 1100 ng/g | Emax [5]: 68% | concentration at 72 h [6]: 370 ng/g | Activity [7]: 91%
SMILES: Cc1ncsc1-c1ccc([C@H](C)NC(=O)[C@@H]2C[C@@H](O)CN2C(=O)[C@@H](NC(=O)[C@H]2CC[C@H](CN3CC4(CCC(n5cc(-c6cc(-c7ccccc7O)nnc6N)cn5)CC4)C3)CC2)C(C)(C)C)cc1
Activity [1]: Non-Toxic
